Data taken from US8192962B2, “Processes for detecting toxic substances” (Daikin Industries, Ltd., priority 2001, dated 2012).

System: Metabolism protein genes
Assay: DNA chip mRNA expression in yeast, metabolism protein genes (Table 7)
Type: cell-based, Saccharomyces cerevisiae S288C
Protocol: Yeast (Saccharomyces cerevisiae S288C (α SUC2mal mel gap2 CUP1)) were incubated at 25° C. on YPD medium (yeast extract 1%, polypepton 2%, glucose 2%). One of toxic chemical substances was added to the cells at logarithmic growth phase, and the cells were further incubated for two hours. Cells were cultured without any chemical substance in the same condition, and were used as control. Concentrations of the chemical substances were defined to inhibit the growth of the yeast but not lead to death.
After completion of the incubation, the culture was centrifuged to collect the cells. To the cells, sodium acetate buffer (50 mM sodium acetate, 10 mM EDTA, 1% SDS) was added, and the mixture was shaken at 65° C. for five minutes, followed by returning to room temperature, and obtaining the supernatant, of which the procedures were repeated two times. To the supernatant, ½ amount of a solution of phenol/chloroform was added, and the mixture was centrifuged to give a supernatant, which was added with an equal amount of chloroform, and the mixture was centrifuged to give a supernatant. To the supernatant, an equal amount of isopropanol containing 0.3 M sodium acetate was added, and the mixture was allowed to stand at room temperature for 30 minutes, after which the mixture was centrifuged to give a sediment of the whole RNAs. Seventy % ethanol was added to the sediment, and the mixture was again centrifuged to give a sediment, which was then dried and dissolved in water. mRNA was isolated from the whole RNAs as followings. In view of the fact that a poly A chain is attached to the 3′ terminus of mRNA, a polynucleotide having a poly T structure which was immobilized on the surface of latex beads was used to trap the mRNA, and then the mRNA was washed and eluted with spine column (Oligotex-dT30<Super>mRNA Purification Kit, Takara). Reverse transcription of the mRNA was conducted with a reverse transcriptase (Super Script II Reverse Transcriptase; catalogue No. 18064-014, GibcoBRL) using fluorescence-labeled nucleotides to give cDNAs that were introduced with Cy3-dUTP or Cy5-dUTP during the reverse transcription.
The labeled cDNAs were dissolved in TE buffer (10mM Tris-HCl/1 mM EDTA, pH8.0), and the solution was dropped on the DNA chip containing the whole genes of yeast (DNA Chip Research Inc. Japan) so that the cDNAs were hybridized on the DNA chip at 65° C. for over 12 hours. The fluoresces intensity of the DNA chip was read with a scanner, and the ratio relative to the fluorescence intensity resulting from the absence of chemical substance was estimated as the following, which is shown in Tables 1 to 9: […]

SMILES: C[S+](C)[O-] [(15), dimethylsulfoxide]
- level of expressed mRNA in the presence/in the absence of chemical substance (yeast gene YER081W): 0.5
- The level of expressed mRNA in the presence of chemical substance/The level of expressed mRNA in the absence of chemical substance (yeast gene YER096W): 1.4
- level of expressed mRNA in the presence/in the absence of chemical substance (yeast gene YER120W): 1.5
- The level of expressed mRNA in the presence of chemical substance/The level of expressed mRNA in the absence of chemical substance (yeast gene YER178W): 1.8
- level of expressed mRNA in the presence/in the absence of chemical substance (yeast gene YFL011W): 1.7
- The level of expressed mRNA in the presence of chemical substance/The level of expressed mRNA in the absence of chemical substance (yeast gene YFL014W): 6.3
- The level of expressed mRNA in the presence of chemical substance/The level of expressed mRNA in the absence of chemical substance (yeast gene YFL030W): 1.1
- The level of expressed mRNA in the presence of chemical substance/The level of expressed mRNA in the absence of chemical substance (yeast gene YFL056C): 5.0
- The level of expressed mRNA in the presence of chemical substance/The level of expressed mRNA in the absence of chemical substance (yeast gene YFR015C): 0.4
- The level of expressed mRNA in the presence of chemical substance/The level of expressed mRNA in the absence of chemical substance (yeast gene YFR047C): 0.6
- The level of expressed mRNA in the presence of chemical substance/The level of expressed mRNA in the absence of chemical substance (yeast gene YGL001C): 0.9
- level of expressed mRNA in the presence/in the absence of chemical substance (yeast gene YGL012W): 0.6
- The level of expressed mRNA in the presence of chemical substance/The level of expressed mRNA in the absence of chemical substance (yeast gene YGL022W): 4.0
- The level of expressed mRNA in the presence of chemical substance/The level of expressed mRNA in the absence of chemical substance (yeast gene YGL104C): 0.9
- level of expressed mRNA in the presence/in the absence of chemical substance (yeast gene YGL115W): 0.7
- The level of expressed mRNA in the presence of chemical substance/The level of expressed mRNA in the absence of chemical substance (yeast gene YGL126W): 2.8
- The level of expressed mRNA in the presence of chemical substance/The level of expressed mRNA in the absence of chemical substance (yeast gene YGL154C): 0.8
- level of expressed mRNA in the presence/in the absence of chemical substance (yeast gene YGL205W): 2.0
- The level of expressed mRNA in the presence of chemical substance/The level of expressed mRNA in the absence of chemical substance (yeast gene YGL248W): 1.8
- The level of expressed mRNA in the presence of chemical substance/The level of expressed mRNA in the absence of chemical substance (yeast gene YGL253W): 0.8
- The level of expressed mRNA in the presence of chemical substance/The level of expressed mRNA in the absence of chemical substance (yeast gene YGR037C): 1.5
- The level of expressed mRNA in the presence of chemical substance/The level of expressed mRNA in the absence of chemical substance (yeast gene YGR060W): 1.4
- level of expressed mRNA in the presence/in the absence of chemical substance (yeast gene YGR096W): 0.9
- level of expressed mRNA in the presence/in the absence of chemical substance (yeast gene YGR191W): 1.5
- The level of expressed mRNA in the presence of chemical substance/The level of expressed mRNA in the absence of chemical substance (yeast gene YGR194C): 0.6
- level of expressed mRNA in the presence/in the absence of chemical substance (yeast gene YGR204W): 1.6
- level of expressed mRNA in the presence/in the absence of chemical substance (yeast gene YGR288W): 0.8
- level of expressed mRNA in the presence/in the absence of chemical substance (yeast gene YHR025W): 2.1
- The level of expressed mRNA in the presence of chemical substance/The level of expressed mRNA in the absence of chemical substance (yeast gene YHR037W): 1.1
- The level of expressed mRNA in the presence of chemical substance/The level of expressed mRNA in the absence of chemical substance (yeast gene YHR092C): 0.2
- The level of expressed mRNA in the presence of chemical substance/The level of expressed mRNA in the absence of chemical substance (yeast gene YHR111W): 1.1
- level of expressed mRNA in the presence/in the absence of chemical substance (yeast gene YHR123W): 2.3
- The level of expressed mRNA in the presence of chemical substance/The level of expressed mRNA in the absence of chemical substance (yeast gene YHR137W): 2.8
- The level of expressed mRNA in the presence of chemical substance/The level of expressed mRNA in the absence of chemical substance (yeast gene YHR174W): 2.0
- The level of expressed mRNA in the presence of chemical substance/The level of expressed mRNA in the absence of chemical substance (yeast gene YHR176W): 1.5
- The level of expressed mRNA in the presence of chemical substance/The level of expressed mRNA in the absence of chemical substance (yeast gene YHR190W): 1.3
- level of expressed mRNA in the presence/in the absence of chemical substance (yeast gene YHR210C): 0.5
- level of expressed mRNA in the presence/in the absence of chemical substance (yeast gene YIL006W): 1.5
- The level of expressed mRNA in the presence of chemical substance/The level of expressed mRNA in the absence of chemical substance (yeast gene YIL033C): 1.0
- The level of expressed mRNA in the presence of chemical substance/The level of expressed mRNA in the absence of chemical substance (yeast gene YIL045W): 0.6
- The level of expressed mRNA in the presence of chemical substance/The level of expressed mRNA in the absence of chemical substance (yeast gene YIL107C): 1.0
- The level of expressed mRNA in the presence of chemical substance/The level of expressed mRNA in the absence of chemical substance (yeast gene YIL154C): 4.3
- The level of expressed mRNA in the presence of chemical substance/The level of expressed mRNA in the absence of chemical substance (yeast gene YIL155C): 1.4
- The level of expressed mRNA in the presence of chemical substance/The level of expressed mRNA in the absence of chemical substance (yeast gene YIL167W): 0.6
- The level of expressed mRNA in the presence of chemical substance/The level of expressed mRNA in the absence of chemical substance (yeast gene YIR036C): 1.1
